Tests used:
Assay in all cases: PI 3-Kinase Assay (Additional Pharmacological Analysis, AlphaScreen)
Type in all cases: biochemical
Conditions in all cases: 40 μM ATP
p110α Type Ia human PI3K = target: T1, p110α Type Ia human PI3K (Homo sapiens, UniProt P42336)
T1 construct: full length DNA of each of the p110α, p110β and p110δ Type Ia human PI3K p110 isoforms; 6-His; made in house; host or cells: baculovirus expression system (Sf9 is named only for PI3Kγ)
Source text: (§1) In order to assess the ability of compounds to inhibit PI3K enzymes, especially PI3Kγ, a novel PI3K assay technology was established. The PI3K enzyme reaction product phosphatidylinositol 3,4,5-trisphosphate (PtdIns(3,4,5)P3) is detected using the pleckstrin homology (PH) domain from general receptor for phosphoinositides (GRP1) as probe. Thus, complexes form between GRP1 PH and PtdIns(3,4,5)P3, and if the lipid is biotinylated and the PH domain tagged with glutathion transferase (GST), the complexes can be detected using AlphaScreen® (PerkinElmer) technology. The signal generated by the complex between GRP1 PH-GST and PtdIns(3,4,5)P3-biotin can be quenched by introduction of non-biotinylated PtdIns(3,4,5)P3, forming the basis for an assay measuring the production of PtdIns(3,4,5)P3 by PI3K enzyme activity.
(§2) Biotinylated PtdIns(3,4,5)P3 was detected using AlphaScreen® technology. Detection was in 384-well microplates in 50 mM Hepes, pH7.4, 50 mM NaCl and 0.1% BSA. The biotinylated, short chain (diC8) phosphoinositide and GRP1 PH-GST were added at 15 nM and 3.75 nM, respectively. Donor and acceptor AlphaScreen® beads (Perkin Elmer) were added at 5 μg/ml to a final volume of 50 μl. Plates were incubated in the dark for 5 hours to ensure binding was complete and then read in an AlphaQuest AD instrument (Perkin Elmer) using standard settings.
(§3) The GRP1 PH domain (amino acids 263 to 380) was PCR cloned from a mouse brain cDNA library (Stratagene), expressed in E. coli and purified using standard protocols. Lipids were from Echelon Research Laboratories, Salt Lake City, Utah, or Cell Signals Inc., Lexington, Ky., USA.
(§4) The assay used AlphaScreen® based detection of PI(3,4,5)P3 (Gray et al., Anal. Biochem., 2003, 313, 234-245) to determine the ability of test compounds to inhibit phosphorylation of recombinant PI3Ks of PI(4,5)P2.
(§5) DNA fragments encoding human PI3K catalytic and regulatory subunits were isolated from cDNA libraries using standard molecular biology and PCR cloning techniques. The selected DNA fragments were used to generate baculovirus expression vectors. In particular, full length DNA of each of the p110α, p110β and p110δ Type Ia human PI3K p110 isoforms (EMBL Accession Nos. HSU79143, S67334, Y10055 for p110α, p110β and p110δ, respectively) were sub-cloned into a pDEST10 vector (Invitrogen Limited, Fountain Drive, Paisley, UK). The vector is a Gateway-adapted version of Fastbac1 containing a 6-His epitope tag. The full length human p85 (regulatory subunit (EMBL Accession No. HSP13KIN) was also sub-cloned into pFastBac1 vector containing a 6-His epitope tag. The Type Ia p110 constructs were co-expressed with the p85α regulatory subunit. Residues 2-1102 of human PI3Kγ were inserted between the BamHI and Not1 cloning sites of the […] HTb vector for expression of His(6)-tagged (N-terminal), full length PI3Kγ in baculo virus infected Sf9 insect cells. Following expression in the baculovirus system using standard baculovirus expression techniques, expressed proteins were purified using standard His epitope tag purification techniques.
(§6) Standard enzyme reactions were performed in 50 mM Hepes, pH7.4, 50 mM NaCl, […], 5 mM DTT and 0.05% CHAPS containing 40 μM ATP, 40 μM diC8 PtdIns(4,5)P2 and 2-20 ng of Type 1 PI3K in a total volume of 20 μl. The reaction was stopped by the addition of 10 μl of EDTA/diC6 PtdIns(3,4,5)P3-biotin followed by 20 μl of GRP1 PH-GST/AlphaScreen beads both in 50 mM Hepes, pH7.4, 50 mM NaCl and 0.1% BSA. Final concentrations were 50 mM EDTA, 15 nM biotinylated diC6PtdIns(3,4,5)P3, 3.75 nM GRP1 PH-GST and 5 μg/ml of AlphaScreen beads. Inhibitors were added to dry wells in […] of 100% DMSO giving a final DMSO concentration of 2.5% in the assay. Control wells contained 2.5% DMSO in the absence of test compound. Inhibition of PI3K by test compounds was expressed as an IC50 value.

p110β Type Ia human PI3K = target: T2, p110β Type Ia human PI3K (Homo sapiens, UniProt P42338)
T2 construct: full length DNA of each of the p110α, p110β and p110δ Type Ia human PI3K p110 isoforms; 6-His; made in house; host or cells: baculovirus expression system (Sf9 is named only for PI3Kγ)
Source text: as §1, §2, §3, §4, §5, §6

p110γ Type Ib human PI3K = target: T3, p110γ Type Ib human PI3K (Homo sapiens, UniProt P48736)
T3 construct: Residues 2-1102 of human PI3Kγ were inserted between the BamHI and Not1 cloning sites; His(6) (N); made in house; host or cells: baculovirus-infected Sf9 insect cells
Source text: as §1, §2, §3, §4, §5, §6

p110δ Type Ia human PI3K = target: T4, p110δ Type Ia human PI3K (Homo sapiens, UniProt O00329)
T4 construct: full length DNA of each of the p110α, p110β and p110δ Type Ia human PI3K p110 isoforms; 6-His; made in house; host or cells: baculovirus expression system (Sf9 is named only for PI3Kγ)
Source text: as §1, §2, §3, §4, §5, §6

T4 sequence (O00329 whole entry, canonical isoform): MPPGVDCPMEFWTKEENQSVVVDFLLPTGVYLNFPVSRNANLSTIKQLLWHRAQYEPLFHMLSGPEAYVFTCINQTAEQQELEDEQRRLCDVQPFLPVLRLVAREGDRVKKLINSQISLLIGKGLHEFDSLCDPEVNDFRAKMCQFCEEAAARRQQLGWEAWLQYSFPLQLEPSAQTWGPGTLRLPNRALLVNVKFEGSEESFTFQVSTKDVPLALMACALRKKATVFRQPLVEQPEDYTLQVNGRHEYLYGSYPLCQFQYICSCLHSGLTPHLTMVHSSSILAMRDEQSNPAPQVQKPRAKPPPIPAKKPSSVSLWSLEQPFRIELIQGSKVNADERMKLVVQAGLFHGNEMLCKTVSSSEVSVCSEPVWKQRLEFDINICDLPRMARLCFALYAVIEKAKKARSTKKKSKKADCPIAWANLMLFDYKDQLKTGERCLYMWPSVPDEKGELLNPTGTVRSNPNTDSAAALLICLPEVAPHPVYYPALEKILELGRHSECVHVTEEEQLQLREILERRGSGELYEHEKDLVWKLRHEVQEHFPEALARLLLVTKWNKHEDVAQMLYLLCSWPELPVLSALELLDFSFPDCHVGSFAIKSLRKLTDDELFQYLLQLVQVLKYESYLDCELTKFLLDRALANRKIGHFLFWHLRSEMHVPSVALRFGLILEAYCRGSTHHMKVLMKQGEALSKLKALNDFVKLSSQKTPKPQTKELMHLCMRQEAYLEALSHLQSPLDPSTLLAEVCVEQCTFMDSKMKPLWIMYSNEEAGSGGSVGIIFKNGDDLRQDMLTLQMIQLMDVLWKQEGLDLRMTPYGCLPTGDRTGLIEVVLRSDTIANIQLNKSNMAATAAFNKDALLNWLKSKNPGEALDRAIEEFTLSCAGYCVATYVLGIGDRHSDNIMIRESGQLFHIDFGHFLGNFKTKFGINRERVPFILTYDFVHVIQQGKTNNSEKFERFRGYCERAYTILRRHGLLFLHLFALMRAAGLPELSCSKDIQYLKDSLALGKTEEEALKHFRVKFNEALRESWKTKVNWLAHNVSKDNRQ
T4 sequence (P27986 whole entry partner, canonical isoform): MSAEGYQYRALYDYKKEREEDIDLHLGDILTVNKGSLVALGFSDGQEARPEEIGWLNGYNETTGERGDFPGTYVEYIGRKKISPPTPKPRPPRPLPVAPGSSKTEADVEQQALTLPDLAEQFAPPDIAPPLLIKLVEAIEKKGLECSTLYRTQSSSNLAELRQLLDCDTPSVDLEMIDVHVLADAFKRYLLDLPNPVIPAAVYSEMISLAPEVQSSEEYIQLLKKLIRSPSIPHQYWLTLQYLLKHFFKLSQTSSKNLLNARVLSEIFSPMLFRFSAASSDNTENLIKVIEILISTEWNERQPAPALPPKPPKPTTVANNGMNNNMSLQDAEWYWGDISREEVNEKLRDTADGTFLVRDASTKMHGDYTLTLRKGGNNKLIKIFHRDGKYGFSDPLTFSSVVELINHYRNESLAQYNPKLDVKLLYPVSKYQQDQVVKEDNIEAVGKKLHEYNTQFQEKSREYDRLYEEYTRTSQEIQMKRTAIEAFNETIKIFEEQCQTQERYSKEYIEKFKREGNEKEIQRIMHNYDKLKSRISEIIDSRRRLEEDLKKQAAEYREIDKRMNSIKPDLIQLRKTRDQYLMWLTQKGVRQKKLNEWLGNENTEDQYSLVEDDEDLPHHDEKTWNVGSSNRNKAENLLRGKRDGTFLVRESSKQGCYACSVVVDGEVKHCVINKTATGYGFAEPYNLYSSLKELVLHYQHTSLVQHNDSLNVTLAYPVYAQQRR
T1 sequence (P42336 whole entry, canonical isoform): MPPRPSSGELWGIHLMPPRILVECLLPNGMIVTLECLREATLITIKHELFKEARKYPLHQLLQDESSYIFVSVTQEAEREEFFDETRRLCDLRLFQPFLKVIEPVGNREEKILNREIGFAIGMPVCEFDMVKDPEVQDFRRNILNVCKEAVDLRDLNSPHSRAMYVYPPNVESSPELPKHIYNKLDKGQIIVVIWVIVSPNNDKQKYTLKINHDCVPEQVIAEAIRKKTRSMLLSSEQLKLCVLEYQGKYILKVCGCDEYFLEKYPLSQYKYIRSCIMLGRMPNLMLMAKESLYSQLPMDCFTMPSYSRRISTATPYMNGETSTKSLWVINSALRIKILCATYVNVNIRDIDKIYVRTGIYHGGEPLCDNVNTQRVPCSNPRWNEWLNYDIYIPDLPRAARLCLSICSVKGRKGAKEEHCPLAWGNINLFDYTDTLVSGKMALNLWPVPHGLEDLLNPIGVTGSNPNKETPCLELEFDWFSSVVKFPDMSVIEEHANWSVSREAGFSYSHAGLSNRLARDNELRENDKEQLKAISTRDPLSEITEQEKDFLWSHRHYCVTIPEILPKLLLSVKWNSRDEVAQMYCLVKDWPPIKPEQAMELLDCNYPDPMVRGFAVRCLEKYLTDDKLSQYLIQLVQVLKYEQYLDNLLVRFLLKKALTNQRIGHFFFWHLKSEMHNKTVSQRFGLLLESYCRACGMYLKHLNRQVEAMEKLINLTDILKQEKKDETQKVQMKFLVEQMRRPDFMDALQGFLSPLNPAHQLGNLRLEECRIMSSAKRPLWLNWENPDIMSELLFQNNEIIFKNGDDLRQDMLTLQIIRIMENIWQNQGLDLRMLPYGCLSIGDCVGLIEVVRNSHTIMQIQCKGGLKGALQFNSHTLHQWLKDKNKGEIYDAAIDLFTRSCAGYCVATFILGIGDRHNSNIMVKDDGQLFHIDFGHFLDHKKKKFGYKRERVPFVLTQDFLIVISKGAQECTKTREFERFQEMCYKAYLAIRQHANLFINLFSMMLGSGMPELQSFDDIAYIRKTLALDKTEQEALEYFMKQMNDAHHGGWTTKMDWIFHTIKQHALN
T1 sequence (P27986 whole entry partner, canonical isoform): as the sequence (P27986 whole entry partner, canonical isoform) above
T2 sequence (P42338 whole entry, canonical isoform): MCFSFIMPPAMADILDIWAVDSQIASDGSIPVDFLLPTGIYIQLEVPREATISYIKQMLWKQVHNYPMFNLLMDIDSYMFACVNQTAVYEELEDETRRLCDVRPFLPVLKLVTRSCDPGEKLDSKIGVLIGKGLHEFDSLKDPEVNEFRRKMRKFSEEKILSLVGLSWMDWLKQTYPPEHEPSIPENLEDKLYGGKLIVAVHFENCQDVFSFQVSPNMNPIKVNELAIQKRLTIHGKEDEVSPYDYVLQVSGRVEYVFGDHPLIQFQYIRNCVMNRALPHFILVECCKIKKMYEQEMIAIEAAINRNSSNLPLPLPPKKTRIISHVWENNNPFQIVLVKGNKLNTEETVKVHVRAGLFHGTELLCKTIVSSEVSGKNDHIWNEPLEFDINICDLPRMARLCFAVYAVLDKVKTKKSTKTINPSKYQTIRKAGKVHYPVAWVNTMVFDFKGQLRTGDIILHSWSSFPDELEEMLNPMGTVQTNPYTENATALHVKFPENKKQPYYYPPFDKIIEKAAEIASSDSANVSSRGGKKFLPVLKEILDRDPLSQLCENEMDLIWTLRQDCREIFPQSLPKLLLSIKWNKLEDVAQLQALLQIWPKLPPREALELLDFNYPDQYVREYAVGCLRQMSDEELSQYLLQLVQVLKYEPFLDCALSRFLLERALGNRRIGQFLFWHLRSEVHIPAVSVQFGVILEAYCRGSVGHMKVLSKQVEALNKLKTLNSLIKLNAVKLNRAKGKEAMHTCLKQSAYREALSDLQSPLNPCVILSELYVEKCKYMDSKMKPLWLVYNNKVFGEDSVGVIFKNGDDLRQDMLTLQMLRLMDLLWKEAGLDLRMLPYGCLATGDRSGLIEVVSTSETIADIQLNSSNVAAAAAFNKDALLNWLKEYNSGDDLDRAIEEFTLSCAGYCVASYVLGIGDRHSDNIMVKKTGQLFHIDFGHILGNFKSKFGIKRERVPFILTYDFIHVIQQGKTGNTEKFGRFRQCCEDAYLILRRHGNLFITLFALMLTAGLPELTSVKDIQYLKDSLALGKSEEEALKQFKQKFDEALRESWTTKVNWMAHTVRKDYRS
T2 sequence (P27986 whole entry partner, canonical isoform): as the sequence (P27986 whole entry partner, canonical isoform) above
T3 sequence (P48736 2-1102): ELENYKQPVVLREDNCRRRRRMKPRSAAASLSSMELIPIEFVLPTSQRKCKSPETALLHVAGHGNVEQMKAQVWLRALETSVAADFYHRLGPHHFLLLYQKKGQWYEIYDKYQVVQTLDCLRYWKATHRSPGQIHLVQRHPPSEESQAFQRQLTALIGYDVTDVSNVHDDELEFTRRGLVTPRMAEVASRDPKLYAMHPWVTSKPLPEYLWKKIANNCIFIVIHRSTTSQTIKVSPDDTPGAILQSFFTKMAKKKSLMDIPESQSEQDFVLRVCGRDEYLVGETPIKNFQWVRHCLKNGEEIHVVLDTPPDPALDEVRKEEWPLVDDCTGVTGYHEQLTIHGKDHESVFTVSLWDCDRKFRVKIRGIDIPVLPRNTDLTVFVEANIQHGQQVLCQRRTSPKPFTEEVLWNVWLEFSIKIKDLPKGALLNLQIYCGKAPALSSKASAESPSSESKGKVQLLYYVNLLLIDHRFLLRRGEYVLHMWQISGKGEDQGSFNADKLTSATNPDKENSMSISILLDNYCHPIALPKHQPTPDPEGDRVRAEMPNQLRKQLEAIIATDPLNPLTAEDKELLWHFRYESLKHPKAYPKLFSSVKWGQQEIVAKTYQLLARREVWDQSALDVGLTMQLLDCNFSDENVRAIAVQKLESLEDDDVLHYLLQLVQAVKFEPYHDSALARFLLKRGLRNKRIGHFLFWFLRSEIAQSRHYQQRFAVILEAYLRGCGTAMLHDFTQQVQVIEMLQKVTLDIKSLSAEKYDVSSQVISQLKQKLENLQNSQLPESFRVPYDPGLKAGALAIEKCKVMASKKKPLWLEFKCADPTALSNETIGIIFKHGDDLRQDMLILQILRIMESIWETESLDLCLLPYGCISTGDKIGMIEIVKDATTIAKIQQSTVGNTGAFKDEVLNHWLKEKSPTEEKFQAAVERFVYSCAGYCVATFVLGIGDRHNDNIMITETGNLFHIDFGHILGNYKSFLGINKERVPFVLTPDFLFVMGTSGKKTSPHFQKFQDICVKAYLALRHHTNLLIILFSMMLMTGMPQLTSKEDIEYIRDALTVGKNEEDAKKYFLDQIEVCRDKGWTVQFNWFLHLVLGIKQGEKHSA

| IC50 (p110α Type Ia human PI3K) [µM] | IC50 (p110β Type Ia human PI3K) [µM] | IC50 (p110γ Type Ib human PI3K) [µM] | IC50 (p110δ Type Ia human PI3K) [µM] | Structure (SMILES) |
| --- | --- | --- | --- | --- |
| 0.42 | 0.74 | 0.22 | 0.15 | CC(=O)Nc1nc(C)c(-c2cnc(Cl)c(S(C)(=O)=O)c2)s1 [Example 7, N-[5-(6-Chloro-5-methylsulfonyl-pyridin-3-yl)-4-methyl-1,3-thiazol-2-yl]acetamide] |
| 0.57 | 1.89 | 0.4 | 0.2 | CC(=O)Nc1nc(C)c(-c2cncc(S(=O)(=O)NCCO)c2)s1 [Example 8, N-{5-[5-(2-Hydroxyethylaminosulfonyl)pyridin-3-yl]-4-methyl-1,3-thiazol-2-yl}acetamide] |
| 0.05 | 0.25 | 0.16 | 0.01 | CC(=O)Nc1nc(C)c(-c2cnc(Cl)c(NS(=O)(=O)CCCN3CCN(C)CC3)c2)s1 [Example 31, N-(5-{6-Chloro-5-[3-(4-methylpiperazin-1-yl)propylsulfonylamino]pyridin-3-yl}-4-methyl-1,3-thiazol-2-yl)acetamide bis(trifluoroacetate)] |
| 0.28 | 0.63 | 0.12 | 0.2 | CC(=O)Nc1nc(C)c(-c2cnc(Cl)c(NCc3ccccc3)c2)s1 [Example 46, N-{5-[5-(Benzylamino)-6-chloropyridin-3-yl]-4-methyl-1,3-thiazol-2-yl}acetamide] |
| 0.23 | 0.12 | 0.26 | < 0.1 | COCC(=O)Nc1nc(C)c(-c2cnc(Cl)c(NS(=O)(=O)c3ccccc3)c2)s1 [Example 56, N-[5-(5-Benzenesulfonylamino-6-chloropyridin-3-yl)-4-methyl-1,3-thiazol-2-yl]-2-methoxyacetamide] |
